According to patent publication US20210330756A1, “Acetylation of Miro1” (University of South Carolina, priority 2020, published 2021):

Assays:
[1] = system: adult dorsal root ganglion (DRG) neurons; test: Neurite length of dissociated adult DRG neurons cultured on laminin; format: cell-based, rat; details: 10 μM, 1 h
Description: HDAC6 inhibition increases growth cone size of sensory axons. Given our previous work showing that HDAC6 inhibition allows axons to grow on MAG and CSPG substrates (Rivieccio et al., 2009; Butler et al., 2010), we asked how inhibition of HDAC6 alters axon growth in cultures of adult dorsal root ganglion (DRG) neurons. […] (A) Quantification of neurite length for dissociated DRGs cultured on laminin with addition of HDAC6 inhibitor TubA (10 μm) versus vehicle control (DMSO) over 1 h is shown as average fold-change relative to vehicle±SEM (n≥95 neurons across three independent experiments; NS by one-way ANOVA with Bonferroni post hoc). (B and C) show representative DIC images of distal axons from DRG neurons cultured as in A are shown (B). 1-h TubA treatment appears to increase growth cone size. Analyses of growth cone area across multiple experiments show a significant increase in area after TubA treatment (C). Values are average fold-change±SEM (n≥26 neurons over at least three culture preparations; ***, P≤0.005 by one-way ANOVA with Bonferroni post hoc; scale bar=5 μm; 40×/1.3 NA objective used). […] Prominent HDAC6 signals are seen in distal axons and growth cones (arrows) regardless of TubA exposure. […]
NF-stained cultures were used for neurite growth analyses. […] The growth cone area was measured using ImageJ software from these annotated DIC images. […]

Ac-α-tubulin = test: Immunoblotting for Ac-α-tubulin in adult DRG neurons; format: cell-based, rat
Description: We tested for this specificity in the adult DRG neurons from above by immunoblotting. […] (A) Number of mitochondria in growth cones after exposing DRG cultures to 10 μM TubA versus vehicle (control) for 1 h is shown as average fold-change in number of mitochondria per growth cone±SEM (n=13 axons across three culture preparations; *, P≤0.05 by one-way ANOVA with Bonferroni post hoc analysis). (B) Representative EMs of Remak bundles (arrowheads) in naive Sciatic nerve and nerves after 2 h vehicle (DMSO) or TubA injection are shown. Arrows indicate mitochondria in the unmyelinated axons. Note that a Schwann cell nucleus (asterisk) is seen in the Remak bundle for DMSO image but not the other two micrographs (scale bar=3 μm). (C) Quantification of number of mitochondria per unmyelinated axon from EM images as in B is shown as average±SEM (n≥5; *****, P≤0.0001 by one-way ANOVA with Bonferroni post hoc analysis). (D-F) Quantification for indicated parameters for mitochondrial transport in sciatic nerve in vivo using tetramethylrhodamine, ethyl ester, perchlorate to visualize mitochondria is shown.
For immunoblotting, protein lysates or immunoprecipitates were denatured by boiling in Laemmli sample buffer, fractionated by SDS-PAGE, and transferred to nitrocellulose membranes. Blots were blocked for 1 h at room temperature with 5% nonfat dry milk in TBS with 0.1% Tween 20 (TBST). Primary antibodies diluted in 5% BSA in TBST were added to the membranes and incubated overnight at 4° C. with rocking. Primary antibodies consisted of rabbit anti-Myc (1:2,000; Cell Signaling; 71D10), rabbit anti-RHOT1 antibody (1:1,000; Aviva Systems Biology; ARP44817 P050), rabbit anti-HDAC6 antibody (1:2,000; Cell Signaling; 7558), rabbit anti-ERK1 (1:5,000; Abcam; ab32537), and affinity-purified custom rabbit anti-Miro1-AcK105 (1:2,500; Twiss laboratory, see above) antibodies. For the anti-Miro1-AcK105 antibody, preimmune and test-bleed sera were used at 1:1,000 dilutions to initially evaluate for specificity. […] Signals were detected using ECL Prime (GE Healthcare) after extensive washing.

CN1CCc2c(c3ccccc3n2Cc2ccc(C(=O)NO)cc2)C1 [TubA, tubastatin]
neurite length vs vehicle [1]: did not significantly affect neurite length
Ac-α-tubulin levels (Ac-α-tubulin; 1 μM): clear increase in Ac-α-tubulin levels
Ac-α-tubulin levels (Ac-α-tubulin; 10 μM): clear increase in Ac-α-tubulin levels
Ac-α-tubulin levels (Ac-α-tubulin; 100 μM): clear increase in Ac-α-tubulin levels
